Entries after “also recorded” stand apart in the source; their conditions may differ.
Assays:
human TM cells [1] = experiment: Regulatory volume decrease (RVD) of human TM cells in hypotonic medium (electronic cell sizing); format: cell-based; conditions: hypotonic medium (200 mOsm), agent at 1 mM
Procedure: (§1) By the second method, TM cells were trypsinized briefly in Ca-free medium, then rinsed with medium containing trypsin inhibitor and suspended in Hepes MEM. Mean cell volumes were then analyzed by electronic cell sizing on a COULTER COUNTER™ radioassay (Model ZM) with channelizer (C256), using at least 50,000 cells per data point and an orifice diameter of 140 μm. Aliquots of suspended cells were diluted into Hepes MEM containing the tonicity and/or agents to be evaluated. Mean cell volumes of each suspension aliquot were followed over time, starting at 1 minute after addition of cells to the assay media. Cell suspensions were maintained at 37° C. throughout the assay period. Absolute volumes (picoliters/cell) were calculated from distribution curves of cell diameter, using a standard curve generated by polystyrene latex beads of known diameter.
In FIG. 7A, cells were exposed to isotonic medium (300 mOsm) or to hypotonic medium (200 mOsm)±1 mM DPC (diphenylamine carboxylate). Cell volume was assessed by COULTER COUNTER™ electronic cell sizing over the time course shown, using TM cells in suspension. […] Data represent means of two experiments, error values shown are SEM, n=4 (two separate RVD runs per experiment).
Data represent means of two experiments, error values shown are SEM, n=4 (two separate RVD runs per experiment).

human TM cells [2] = experiment: Whole cell patch clamp ion conductances of human TM cells; format: cell-based; conditions: human TM cells
Procedure: Further studies conducted with agents known to block Cl and K channels attenuate the swelling-activated regulatory volume decrease in TM cells and niflumic acid reduces both cell volume and intracellular [Cl] of TM cells. In these studies, human TM cells were cultured from donor eyes and used between passages three and eight. Routine whole cell patch clamp methods were used to assess conductances of TM cells in isotonic (290 mOsm) and hypotonic (230 mOsm) media, with or without NPPB, DIDS, TEA or niflumic acid. Conductances were determined from current/voltage plots, generated using a ramp protocol. […] The reversal potential observed in the presence of hypotonic medium was close to the calculated reversal potential for Cl. Switching to an external medium containing reduced Cl shifted the reversal potential toward that calculated for the low Cl medium. Treating the TM cells with the Cl channel blocker NPPB (100 μM) abolished the swelling-activated conductance in a manner reversed by subsequent washout of NPPB. […] Finally, treatment of the cells with the K channel blocker TEA (1 mM) also abolished the niflumic acid-activated TM cell conductance.
Human TM and SC cells grown to subconfluence are gently trypsinized on the day of the experiment and immediately exposed to trypsin-neutralizing solution and then allowed to settle onto standard square (22×22-mm) glass coverslips for 30 minutes before use. Routine patch clamp methods were used as described previously Barakat, A. I., et al., Circulation Research, 85: 820-828, 1999; Hamill, O. P. et al., Pflügers Archives, 391: 85-100, 1981; Mauro, T. et al., J of Invest. Dermatology, 105: 203-208, 1995; Pappone, P. A. et al., J. of Physiology, 306:377-410, 1980; Pappone, P. A. et al., J of Gen. Physiology, 106: 231-258, 1995; Pappone, P. A. et al., Amer. J. of Physiology: Cell Physiology, 264: C1014-C1019, 1993; Wilson, S. M. et al., J. of Gen. Physiology, 113: 125-138, 1999. Using the whole cell patch clamp mode, conductances were assessed for isotonic and hypotonic media. By assessing current/voltage (I/V) relationships and reversal potentials for the TM and SC cells while using specific concentrations of Cl in the pipette and bath media, the nature of the conductances observed can be determined.
Whole cell currents were measured at room temperature in a Warner recording/perfusion chamber (Warner Instrument Corp.) using standard whole-cell patch clamp techniques as described previously, Lucero, M. T. et al., J. of Gen. Physiology, 95:523-544, 1999. Thick-walled borosilicate capillaries (Sutter Instruments, Inc., Novato, Calif.) were used to manufacture pipettes with resistances of 3 to 5 MW. The voltage offset between the patch pipette and the bath solution were nulled immediately before patch formation. An agar bridge containing […] KCl was used to ground the bath solution. Voltages were recorded from a patch-clamp amplifier (AXOPATCH 200A, Axon Instruments). Data was collected on a Macintosh personal computer using Pulse+Pulsefit software (HEKA Elektronik). Whole-cell currents were recorded from single (sub confluent) cells with membrane capacitances nulled through the patch-clamp amplifier. The voltage ramp protocol included a voltage step from the holding potential to +60 mV for 40 ms followed by a ramp to −100 mV over a period of 400 ms followed by a return to the holding potential. During the protocol, voltage ramps were conducted once every 5 seconds for 10 minutes, yielding 120 traces. Conductances were computed by taking the derivative of a least-squares straight line fit to the I-V data plots using Igor Pro Software (Wavemetrics, Inc.). In cases in which the I-V plots are not linear over the entire voltage ramp (as in FIGS. 6AB), computation of the whole-cell conductance were restricted to a linear range, typically 0 to +60 mV. […]

Na—K—Cl co-transporter = biological target: T1, Na—K—Cl co-transporter (Homo sapiens, UniProt P55011); experiment: Na—K—Cl co-transport measured as bumetamide-sensitive K influx (86Rb tracer) in human TM cell monolayers; format: cell-based
T1 construct: endogenous in cells; host or cells: cultured human trabecular meshwork (TM) cells, normal or glaucomatous donors
T1 sequence (P55011 1-1212): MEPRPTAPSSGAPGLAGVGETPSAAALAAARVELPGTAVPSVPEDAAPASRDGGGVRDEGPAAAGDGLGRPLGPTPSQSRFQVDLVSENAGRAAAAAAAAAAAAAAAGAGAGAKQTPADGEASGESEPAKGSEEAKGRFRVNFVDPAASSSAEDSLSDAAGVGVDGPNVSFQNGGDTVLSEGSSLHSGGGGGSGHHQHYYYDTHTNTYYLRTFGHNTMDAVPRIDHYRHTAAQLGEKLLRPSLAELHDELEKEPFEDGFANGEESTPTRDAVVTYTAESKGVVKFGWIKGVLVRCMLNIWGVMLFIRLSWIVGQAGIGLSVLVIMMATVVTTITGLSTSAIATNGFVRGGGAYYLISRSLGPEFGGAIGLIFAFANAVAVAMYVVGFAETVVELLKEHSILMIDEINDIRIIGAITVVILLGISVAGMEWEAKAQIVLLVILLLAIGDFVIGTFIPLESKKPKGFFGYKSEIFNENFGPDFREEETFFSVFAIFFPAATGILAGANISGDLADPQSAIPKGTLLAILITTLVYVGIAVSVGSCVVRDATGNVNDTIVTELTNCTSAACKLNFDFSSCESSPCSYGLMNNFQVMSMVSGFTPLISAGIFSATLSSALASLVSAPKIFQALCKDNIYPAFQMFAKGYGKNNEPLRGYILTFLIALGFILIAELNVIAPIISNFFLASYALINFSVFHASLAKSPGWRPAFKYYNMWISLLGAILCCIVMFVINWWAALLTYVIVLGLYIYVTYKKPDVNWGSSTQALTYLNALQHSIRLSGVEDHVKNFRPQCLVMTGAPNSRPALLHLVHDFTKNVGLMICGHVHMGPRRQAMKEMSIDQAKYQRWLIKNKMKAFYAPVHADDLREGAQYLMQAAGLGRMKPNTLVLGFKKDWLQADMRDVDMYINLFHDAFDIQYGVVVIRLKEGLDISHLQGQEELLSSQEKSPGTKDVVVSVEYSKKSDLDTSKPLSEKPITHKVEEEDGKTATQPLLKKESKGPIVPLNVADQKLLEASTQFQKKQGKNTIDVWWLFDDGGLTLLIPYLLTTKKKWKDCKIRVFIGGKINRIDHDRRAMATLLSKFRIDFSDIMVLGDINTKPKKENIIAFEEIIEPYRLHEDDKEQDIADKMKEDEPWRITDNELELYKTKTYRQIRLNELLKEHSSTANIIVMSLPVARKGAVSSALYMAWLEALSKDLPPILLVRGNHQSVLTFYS
Procedure: Na—K—Cl co-transport was measured as ouabain-insensitive, bumetamide-sensitive potassium influx, using ^86Rb as a tracer for potassium. […] The assay medium also contained ^86Rb (1 μCi/ml) (Dupont New England Nuclear, Boston, Mass.). The assay was terminated by rinsing the wells with ice-cold isotonic MgCl2, then extracting the contents with 0.2% sodium dodecyl sulfate (SDS), and determining the amount of radioactive contents by liquid scintillation. Osmolarities of all preincubation and assay media were verified by osmometry (Model 3W2, Advanced Instruments, Norwood, Mass.).
The cells were pretreated with Hepes-buffered minimal essential medium (MEM) ±10 μM bumetamide ±1 mM ouabain for 5 min, then assayed for 5 min in the same media plus ^86Rb. […] Data are means ±SEM, n=12.
Na—K—Cl co-transport activity of glaucomatous human TM cells was assessed as ouabain-insensitive, bumetamide-sensitive K influx, using ^86Rb as a tracer for K, as described previously. TM cells were preincubated for 5 minutes in a Hepes-buffered MEM containing 0 or 10 μM bumetamide in the presence of 1 mM ouabain, followed by a 5 minute assay in media of identical composition except that they also contained ^86Rb. […] Data are mean values ±SEM in seven normal TM cultures (donor age range, 38-68 years, n=12 in each cell culture) and in seven glaucomatous cultures (donor age range 41-75 years, n=7 in each cell culture).
Human TM cells were equilibrated in Hepes-buffered MEM for 30 minutes and then pretreated for 5 minutes in media containing 1 mM ouabain, 10 or 0 μM bumetamide, and 0.3 μM to 1 mM niflumic acid (NA). Cells were then assayed for bumetamide-sensitive K influx for 5 minutes in media identical to the pretreatment media but also containing ^86Rb (1 μCi/ml). […] Dashed line indicates control level of Na—K—Cl co-transport. Data are means ±SEM of at least 4 determinations from 3 experiments.

human TM cells [3] = experiment: Intracellular volume of human TM cells (14C-urea/14C-sucrose water space or COULTER COUNTER electronic cell sizing), isotonic medium; format: cell-based; conditions: for reduction in intracellular volume: human TM cells, 10 μM bumetamide, isotonic conditions; for TM cell volume: hormones and intracellular regulators acting on the co-transporter
Procedure: The intracellular volume of human and bovine TM cells was evaluated by two methods: 1) radioisotopic evaluation of TM monolayer intracellular water space using ^14C-urea and ^14C-sucrose as markers of total and extracellular space, respectively; and 2) electronic cell sizing of suspended TM cells, using a COULTER COUNTER™ assay (Coulter Electronics, Ltd., Hialeah, Fla.). Details of these methods have been described previously by O'Donnell (O'Donnell, M. E., supra, 1993) the entirety of which is incorporated herein by reference.
By the first method, cell monolayers were preequilibrated for 30 minutes in Hepes MEM at 37° C. in an air atmosphere, then incubated for 20 minutes in Hepes MEM containing 0 or 10 μM bumetamide, ethacrynic acid, or other agents to be tested, and finally incubated for 10 minutes in the same medium containing either ^14C-urea or ^14C-sucrose (both at 1 μCi/ml). Monolayers were then rinsed with isotonic ice-cold MgCl2 and radioactivity of SDS extracts determined by liquid scintillation. Specific activities (counts per minute/ml) of ^14C-urea and ^14C-sucrose in the assay medium were determined and used to calculate water space associated with trapped radioactivity (expressed as μl/mg protein. Intracellular volume was calculated as the difference between the water space determined for ^14C-urea (a marker for intracellular plus trapped extracellular space) and ^14C-sucrose (a marker for trapped extracellular space).
as §1
Human TM cells were exposed to isotonic medium ±niflumic acid (10 or 100 μM)±10 μM bumetamide. Cell volume was assessed by COULTER COUNTER™ electronic cell sizing over the time course shown, using TM cells in suspension. Note that niflumic acid (NA) alone decreases volume of the TM cells and that exposing the cells to NA plus bumetamide causes a further decrease in TM cell volume. Data represent means of two experiments (all conditions shown tested in both experiments).

[4] = tested on: perfused human anterior chambers; experiment: Outflow facility of perfused human anterior chambers; conditions: perfused with bumetamide
From the text: The effect is expected to be transient because after the initial cell shrinkage, the co-transporter is activated to restore volume in the TM cells and, thus, the cell shrinkage is only transient. […] Here again, the cells rapidly respond to altered volume, in this case by activating ion efflux pathways to decrease volume of the cells to normal.

O=S(=O)(O)c1cc(N=C=S)ccc1C=Cc1ccc(N=C=S)cc1S(=O)(=O)O [DIDS, 4,4′-diisothiocyanostilbene-2,2′-disulfonic acid]
regulatory volume decrease (RVD) (human TM cells [1]): attenuated; also recorded: reduced
swelling-activated (hypotonic medium-induced) ion conductance (human TM cells [2]; DIDS 1 mM): does not increase; also recorded: abolished; also recorded: blocked

O=C(O)c1ccccc1Nc1ccccc1 [DPC, diphenylamine carboxylate]
regulatory volume decrease (RVD) (human TM cells [1]): attenuated

O=C(O)c1cc([N+](=O)[O-])ccc1NCCCc1ccccc1 [NPPB]
swelling-activated (hypotonic medium-induced) ion conductance (human TM cells [2]; NPPB 100 μM): blocked; also recorded: abolished

CC[N+](CC)(CC)CC [TEA, tetraethylammonium]
regulatory volume decrease (RVD) (human TM cells [1]): diminished
niflumic acid-activated TM cell conductance (human TM cells [2]; niflumic acid 100 μM plus K channel blocker TEA 1 mM): abolished

CCCCNc1cc(C(=O)O)cc(S(N)(=O)=O)c1Oc1ccccc1 [bumetamide]
total K influx in TM cells (Na—K—Cl co-transporter; human TM cells, 10 μM bumetamide, 86Rb tracer): blocks a substantial portion
reduction in intracellular volume (human TM cells [3]; 30 minute exposure): 12±4%
reduction in intracellular volume (human TM cells [3]; 60 minute exposure): 25±6%
cell volume of normal and glaucomatous TM cells (human TM cells [3]; normal and glaucomatous human TM cells exposed to bumetamide): decreased
outflow facility [4]: sustained elevation

Nc1ncnc2c1ncn2[C@@H]1O[C@@H]2COP(=O)(O)O[C@H]2[C@H]1O [cyclic AMP]
inhibition of Na—K—Cl co-transporter of glaucomatous TM cells (Na—K—Cl co-transporter; glaucomatous human TM cells): insensitive
TM cell volume (human TM cells [3]): reduce

NS(=O)(=O)c1cc(C(=O)O)c(NCc2ccco2)cc1Cl [furosemide]
regulatory volume decrease (RVD) (human TM cells [1]): no effect

NC[C@H](O)c1ccc(O)c(O)c1 [norepinephrine]
TM cell volume (human TM cells [3]): reduce
